Legend:
Parkin = molecular target: T1, Parkin (Homo sapiens, UniProt O60260); assay: Parkin pUB auto-ubiquitinylation assay (TR-FRET); assay type: biochemical; conditions: for EC50: activation of pUb activated Parkin, read-out: Auto-ubiq EC50 (μM) [Example 3]
T1 construct: Enzyme 3: Parkin-His tagged 203 μM (10.5 mg/ml)
Description: A Parkin pUB Auto-ubiquitinylation Assay is used to evaluate a compound's potency to activate Parkin's ability to Auto-ubiquitinylate itself.
The principle of this assay is that the E3 Ligase Parkin catalyzes the transfer of Ubiquitin to target proteins, but also has the ability to auto-ubiquitinylate itself. The phospho-Ubiquition (pUb) added to the assay alters the Parkin to a state where small molecule activators can enable the Parkin to auto-ubiquitinylate though the E1-E2 cascade reaction. The use of a Eu cryptate Ubiquition and anti 6His-d2 that binds to the His tagged Parkin will give a signal when the Eu cryptate Ubiquition is auto-ubiquitinylate onto the Parkin which can be monitored by TR-FRET.
Similar to the Activity-based probe assay in Example 2, screening for activating compounds can be distinguished from the controls as follows:
100% activation signal=pUb activated Parkin+40 nM control activator in DMSO. 0% activation signal=pUb activated Parkin+DMSO only. Parkin activators can be identified by an increase of the 0% activation signal TR-FRET signal.
• Assay Plate: White 384 well plate (Corning 3572) • Enzyme 1: E1 (Ubiquitin-activating enzyme/UBE1 Boston Biochem E-305) • Enzyme 2: E2 (UBcH7/Ube2L3 Boston Biochem E2-640) • Enzyme 3: Parkin-His tagged 203 μM (10.5 mg/ml) • pUb: Phospho-Ubiquitin (S65) (Boston Biochem U-102) • Eu Cryptate Reagent: Ubiquitin Eu (CisBio 61UBIKLA) • DMSO: DMSO (Sigma-34869-2.5L) • Reaction Buffer: 50 mM HEPES, 50 mM NaCl, 1 mM MgCl2, 0.005% Tween 20, 0.1% • PF-127 (Fisher Scientific 50-310-494), pH 8.5 • Detection Buffer: 50 mM HEPES, 50 mM NaCl, 800 mM KF, 5 mM EDTA, 0.005% • Tween 20, 0.1% PF-127, pH 8.5 • Detection Reagent Z: 13.4 nM Anti-6His-d2 in detection buffer • d2 Reagent: Anti-6His-d2 (CisBio 61HISDLA)
Enzyme Reaction (15 min Pre-Incubation with Parkin, pUb and Activator Only) • Parkin: 196 nM • pUb: 196 nM • DMSO: 1% DMSO • E1: 5 nM • E2: 50 nM • Ubiquitin Eu: 8.8 nM • Reaction time: 120 minutes • Temperature: 22° C. • Total volume: 10 μl reaction
Take 10 μl of Enzyme Reaction above and add 10 μl detection Reagent Z under the following conditions:
Reaction time: 60 minutes
1) Load assay plate wells with 4.9 μl 400.0 nM Parkin, 400 nM pUb in reaction buffer by use of Eppendorf 12-channel pipette. 2) Deliver 0.1 μl 100× activator candidates in DMSO by use of Echo 555 compound dispenser. Highest 100× concentration=100 μm and then twofold dilutions. Add each compound and control in duplicate wells. 3) Spin 1000 rpm, 2 minutes, at room temp. 4) Incubate plate for 15 minutes at room temp. 5) Add 5 μl 10 nM E1, 100 nM E2, 17.6 nM Ubiquitin Eu and 2 mM ATP in Reaction Buffer by use of Eppendorf 12-channel pipette. 6) Spin 1000 rpm, 2 minutes, at room temp. 7) Incubate plate for 120 minutes at room temp. 8) Add 10 μl 13.4 nM anti his d2 in detection buffer by use of Eppendorf 12-channel pipette. 9) Spin 1000 rpm, 2 minutes, at room temp. 10) Incubate plate for 120 minutes at room temp. 11) Read plates on Perkin Elmer Envision instrument with the following parameters:
LANCE dual laser protocol loaded into the Envision® software
Top Mirror: LANCE/DELFIA Duel/Bias (Bar code 446) Emission Filter: APC 665 EM (Bar code 205) 2nd Emission Filter: Europium 615 EM (Bar code 203) Read […] (channel 1) and 615 nm (channel 2) wavelengths on Envision®
Data Analysis: The Data can be read in CSV files. There are two tables in those CSV files, which are the values of 655 nm (channel 1) and 615 nm (channel 2) wavelengths respectively. The data is converted to an HTRF Ratio=(Channel 1/Channel 2)*10,000
The average of all the 0 uM controls (DMSO only)=BKGD (Background—0% activation). Subtract BKGD from each HTRF Ratio value=HTRF-BKGD. The average of all the 100 uM control activator in DMSO controls=Max (100% activation). The following equation is then used to calculate % Activation for each well/candidate as follows: % Activation=(HTRF−BKGD/Max)*100.
XLFIT5 model 205 was applied for the data analysis. […]

[1] = Metabolic stability in rat liver microsomes (RLM); assay type: in vitro ADME; conditions: rat, liver microsomes, pH 7.4, 1 μM compound, 1.0 mg/mL microsome, NADPH; read-out: RLM t1/2
Experimental: Compounds were also tested for metabolic stability in both rat liver microsomes (RLM) and human liver microsomes (HLM) and their half-life calculated (See Table 6). The assay was performed as follows. The total volume for each incubation was 250 μL. A 100 μM DMSO solution of compound (diluted from 10 mM stock solution) was spiked into 50 mM KH2PO4 (pH 7.4) buffer containing liver microsome at a concentration of 1.0 mg/mL. The reaction was initiated by the addition of 50 μL of 1 mM NADPH. The final concentration of each compound was 1 μM (1% DMSO). The positive controls, phenacetin for CYP1A2, diclofenac for CYP2C9, omeprazole for CYP2C19, dextromethorphan for CYP2D6 and midazolam for CYP3A4 were added to a separate tube with the final substrate concentrations of 1 μM (1% DMSO) for evaluating the enzyme activities in the liver microsomes. At 0, 15, 30 and 60 min, an aliquot of 15 μL reaction mixtures were removed and 200 μL of methanol (with internal standard of 25 ng/mL propranolol) was added to quench the reaction. The resulting mixture was centrifuged and supernatant was used for LC-MS/MS analysis.
The signals for each compound, or the metabolites for the probe substrates and the internal standard were integrated and the peak area ratios to internal standard were generated. Percent parent remaining at a specified timepoint was calculated based on the peak area ratios at time 0 (as 100%) for in vitro metabolic stability studies in liver microsome and hepatocyte. The observed rate constant (kobs) for the metabolism of substrates was calculated by plotting the natural log of percentage substrate remaining versus time of incubation with the slope being kobs. The half-life (T1/2) was calculated according to the following equation: […]

T1 sequence (O60260 whole entry, other chains not shown): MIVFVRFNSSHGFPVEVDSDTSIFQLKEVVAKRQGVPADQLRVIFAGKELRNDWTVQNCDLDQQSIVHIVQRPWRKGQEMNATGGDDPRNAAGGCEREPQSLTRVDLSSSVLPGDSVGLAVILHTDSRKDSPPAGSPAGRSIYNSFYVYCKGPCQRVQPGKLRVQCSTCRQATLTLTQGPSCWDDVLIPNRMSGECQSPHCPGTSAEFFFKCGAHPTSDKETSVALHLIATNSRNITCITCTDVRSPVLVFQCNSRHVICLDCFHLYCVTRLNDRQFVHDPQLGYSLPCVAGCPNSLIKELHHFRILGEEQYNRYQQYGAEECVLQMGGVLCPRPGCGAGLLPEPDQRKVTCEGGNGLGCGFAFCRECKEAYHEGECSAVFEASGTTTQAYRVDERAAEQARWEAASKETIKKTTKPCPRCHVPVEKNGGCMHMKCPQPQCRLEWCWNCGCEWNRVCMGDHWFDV

| Compound | Parkin activity in an auto-ubiquitination assay (Parkin) | half-life at 1 μM [1] [min] | EC50 (Parkin) [µM] |
| --- | --- | --- | --- |
| Cc1nc2c(-c3ccccc3)c(C)nn2c(S)c1Cc1ccccc1 [Compound A, 6-benzyl-2,5-dimethyl-3-phenylpyrazolo[1,5-a]pyrimidine-7-thiol] | increases | 84.5 |  |
| Cc1nc2c(-c3ccccc3)c(C)nn2c(S)c1Cc1ccncc1 [Compound AA, 2,5-dimethyl-3-phenyl-6-(4-pyridylmethyl)pyrazolo[1,5-a]pyrimidine-7-thiol] |  | 112 | > 40 |
| Cc1nn2c(S)c3c(nc2c1-c1ccccc1)CN(C)CC3 [Compound C3] |  | 277 | > 40 |
| Cc1nc2c(-c3ccccc3)cnn2c(S)c1Cc1ccccc1 [Compound CC, 6-benzyl-5-methyl-3-phenyl-pyrazolo[1,5-a]pyrimidin-7-thiol] |  | 55.9 | > 40 |
| Cc1nc2c(-c3cccnc3)c(C)nn2c(S)c1Cc1ccccc1 [Compound D3] |  | 63 | 21 |
| Cc1nn2c(S)c(CCc3ccccc3)cnc2c1-c1ccccc1 [Compound E3] |  | 3 | 29 |
| Cc1cc(C)c2c(n1)nn1c(S)cc(C)nc21 [Compound E] |  | 55.9 | 10.1 |
| Cc1cc(S)c2ncc(-c3ccc(F)cc3)n2n1 [Compound F3] |  | 67 | 32 |
| Cc1nn2c(S)c(CC(C)C)cnc2c1-c1ccccc1 [Compound G3] |  | 22 | > 40 |
| Cc1cc(S)n2ncc(-c3ccc(F)cc3)c2n1 [Compound L, 3-(4-fluorophenyl)-5-methylpyrazolo[1,5-a]pyrimidine-7-thiol] | increases | 68 | 27.1 |
| Cc1ccc(-c2cnn3c(S)c4c(nc23)CN(C)CC4)cc1 [Compound S3] |  | > 500 | > 40 |
| Cc1nc2c(-c3ccccc3)cnn2c(O)c1Cc1ccccc1 [Compound U, 6-benzyl-5-methyl-3-phenyl-pyrazolo[1,5-a]pyrimidin-7-ol] |  | 29 | 14.7 |
| COc1ccc(-c2cnn3c(S)cc(C)nc23)cc1 [SS] |  | 12.9 | > 40 |
| Cc1ccc(-c2cnn3c(S)cc(C)nc23)cc1 [TT] |  | 8.1 | > 40 |
| Cc1cc(S)n2ncc(-c3cccc(N(C)C)c3)c2n1 [UU] |  | 4.2 | > 40 |
| Cc1nn2c(S)c(C)c(Cc3ccccc3)nc2c1-c1ccccc1 [ZZ] |  | 44 | > 40 |

— patent publication US20210163489A1, “PYRAZOLOPYRIMIDINE DERIVATIVES AND THE COMPOSITIONS AND METHODS OF TREATMENT REGARDING THE SAME” (NysnoBio Ireland DAC, priority 2016, published 2021)
